According to PubChem BioAssay AID504313 (Emory University Molecular Libraries Screening Center, 2011):
Activity calls are given as the source filed them. The rule behind the calls is not given here.

Target: X-box-binding protein 1 (Homo sapiens) (UniProt P17861)
Assay: inhibitors of XBP1 reporter signal, dose response, counter-screen, cell-based (AID 504313);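 note: CHO cells carrying an XBP1 reporter stimulated with tunicamycin; potency is for inhibition of the tunicamycin-induced reporter signal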
Conditions: XBP1 reporter cell assay, percent of control

| SMILES | IC50 |
| --- | --- |
| NC(=O)CC(NC(=O)Cc1cccc2ccccc12)c1ccc(NCCOc2ccccc2)c([N+](=O)[O-])c1 (centres undefined) | > 10 µM (inactive) |
| O=C(/C=C\c1cn(-c2ccccc2)nc1-c1ccccc1)Nc1nccs1 | inactive |
| NC(=S)n1[nH]c(-c2ccc([N+](=O)[O-])cc2)c(N=Nc2ccc(Cl)cc2)c1=O | inactive |
| COc1ccc(C(=O)/C=C/C(=O)N(CC(=O)NCCC(C)C)Cc2cccs2)c(O)c1 | inactive |
| COC(=O)c1sc(-c2ccc(C(C)(C)C)cc2)cc1NC(=O)c1ccccc1C(=O)O | > 10 µM (inactive) |
| COc1ccc(C(C(=O)NC2CCCCC2)N(C(=O)CCl)c2cccc(Cl)c2)cc1 (centres undefined) | inactive |
| O=C(Nc1nccs1)c1cc2c(s1)CCCCC2 | > 10 µM (inactive) |
| C/C=C/Cn1c(SCCCc2ccccc2)nc2c1c(=O)[nH]c(=O)n2C | > 10 µM (inactive) |
| OC(CNCCc1ccc(C(F)(F)F)cc1)COc1ccc2ccccc2c1 (centres undefined) | inactive |
| CCC(C)[C@@H](NC(=O)OC(C)(C)C)c1nnc(S(=O)(=O)Cc2cccc(C)c2)o1 (some centres undefined) | 4.55 µM |
| O=C(CSc1ncnc2[nH]ncc12)Nc1nc(-c2ccc(F)c(F)c2)cs1 | > 10 µM (inactive) |
| C=C(C(=O)c1ccccc1)C(C)C(=C)C(=O)c1ccccc1 | inactive |
| CCc1ccc(/C=C2\SC(=S)N(CCCC(=O)Nc3ccccn3)C2=O)cc1 | < 0.16 µM |
| Cc1cc(/C=c2/sc3nc4ccccc4n3c2=O)c(C)n1-c1ccccn1 | < 0.16 µM |
| COc1ccc(C2=NN(C(=O)c3ccco3)C(c3cc4ccccc4nc3Cl)C2)cc1 (centres undefined) | > 10 µM (inactive) |
| O=C(CCl)N1CCN2C(=O)c3ccccc3C12c1ccc(Cl)cc1 (centres undefined) | inactive |
| CS(=O)(=O)c1nc(-c2ccc(F)cc2)cc(C(F)(F)F)n1 | inactive |
| CCOc1cc(C(=O)CSc2nnc(CNc3ccc(Cl)cc3)o2)ccc1NC(=O)CC | inactive |
| COc1cccc(N2CCN(c3ncnc4c3[nH]c3ccccc34)CC2C)c1 (centres undefined) | inactive |
| CNc1ccc2oc(C[C@H]3O[C@@]4(CC[C@H]3C)O[C@H]([C@H](C)C(=O)c3ccc[nH]3)[C@H](C)C[C@H]4C)nc2c1C(=O)O | 1.41 µM |
| COc1ccccc1C(=O)NC(=Nc1nc2ccccc2o1)NC(=O)c1ccccc1OC | inactive |
| COc1ccc(-c2[nH]ncc2N=Nc2cc(C)cc(C)c2)cc1 | > 10 µM (inactive) |
| O=C(C1=C(c2ccccc2)C(=O)c2ccccc2C1=O)c1ccccc1 | inactive |
| Oc1ccc(Cl)cc1-c1cc(-c2ccccc2)n[nH]1 | > 10 µM (inactive) |
| C[C@H](NC(=O)c1[nH]cnc1C(=O)Nc1ccc(Cl)cc1)C(=O)OC(C)(C)C | inactive |

| SMILES | IC50 |
| --- | --- |
| CC(C)=CCCC1(C)C=Cc2c(c(C)cc3c2[nH]c2cc(O)ccc23)O1 (centres undefined) | inactive |
| C=C1C(=O)O[C@@H]2C[C@@H](C)[C@@H]3C4OC4C(=O)[C@@]3(C)[C@@H](O)[C@H]12 (some centres undefined) | 4.96 µM |
| CC(C)(C)c1ccc(Oc2ccc(N)cc2)cc1 | < 0.16 µM |
| O=S(=O)(NC1CC1)c1ccc(S(=O)(=O)N2CCCC3(CCCCC3)C2)cc1 | inactive |
| Cc1ccc(N=Cc2cc3c(cc2O)OC(N)=C(C#N)C3c2ccccc2)cc1 (centres undefined) | > 10 µM (inactive) |
| COc1ccccc1-c1cc(C(F)(F)F)nc(S(=O)(=O)CCCC(=O)NC(C)C)n1 | inactive |
| CCc1ccc(-c2nc(CN3CCC(C(=O)NCCN(CC)c4ccccc4)CC3)c(C)o2)cc1 | > 10 µM (inactive) |
| Cc1ccc(NC2=C/C(=N\S(=O)(=O)c3cccs3)c3ccccc3C2=O)c(C)c1 | 0.55 µM |
| O=[N+]([O-])c1ccc(/C=N/n2c(C3CCCCC3)n[nH]c2=S)cc1 | > 10 µM (inactive) |
| CC(=O)NCc1ccc(C(=O)CCl)s1 | inactive |
| O=S(=O)(Nc1cc(Sc2cccc3cccnc23)c(O)c2ccccc12)c1ccc(F)cc1 | 4.63 µM |
| Cc1nn(Cc2c(Cl)cccc2Cl)c(C)c1NC(=O)c1cn(-c2ccccc2)nc1-c1ccccc1 | inactive |
| CC1=NNC(=O)/C1=C\c1cn(-c2ccccc2)nc1-c1ccc(F)cc1 | inactive |
| CCCCc1ccc(Nc2nc(CCC)cc(=O)[nH]2)cc1 | 2.24 µM |
| CC(=O)C1=C(S(=O)(=O)c2ccc(C)cc2)CS(=O)(=O)C1 | > 10 µM (inactive) |
| COc1cc(N(C(=O)Cc2cccs2)C(C(=O)NC2CCCCC2)c2ccc(C)cc2)ccc1-n1cnnn1 (centres undefined) | > 10 µM (inactive) |
| CCCCCCN=C(CC)c1c(O)n(CCCC)c(=O)[nH]c1=O | inactive |
| CC(C)Cn1c(N)c(C(=O)COC(=O)C2CCCCC2)c(=O)n(C)c1=O | > 10 µM (inactive) |
| CC(CNC(=S)Nc1cc(F)cc(F)c1)CSc1ccc(Cl)cc1 (centres undefined) | > 10 µM (inactive) |
| O=C(Nc1cccc(F)c1)N(Cc1ccc(Cl)cc1)CC(O)C(F)(F)F (centres undefined) | inactive |
| N#C/C(=C\c1ccc([N+](=O)[O-])o1)C(=O)Nc1ccc(F)cc1 | > 10 µM (inactive) |
| CCOC(=O)C(NC(=O)Nc1cccc(C)n1)(OCC(F)(F)F)C(F)(F)F (centres undefined) | inactive |
| CCCCN=c1scc(-c2ccc3c(c2)NC(=O)CO3)n1N=C1CCCC1 | inactive |
| O=c1c(Cl)c(Cl)cnn1Cc1nnc(-c2ccccc2Br)o1 | inactive |
| O=C1NC[C@@H](Cc2cccc3ccccc23)N(CCc2cc(C(F)(F)F)cc(C(F)(F)F)c2)C1=O | inactive |

| SMILES | IC50 |
| --- | --- |
| CCOC(=O)c1cnc(-n2nc(C)cc2C)nc1NC1CCCCC1 | inactive |
| CCCCCCn1c(-c2ccco2)nc2oc3cc(OC)ccc3c(=O)c2c1=O | > 10 µM (inactive) |
| CNC(=O)c1nnsc1S(=O)(=O)c1ccc(Cl)cc1 | inactive |
| CC(C)COc1ccc(/C(=N/O)c2ccccc2)cc1 | inactive |
| CCOC(=O)c1sc(N=Nc2c(O)[nH]c(=O)[nH]c2=O)c(C(=O)OCC)c1C | > 10 µM (inactive) |
| O=[N+]([O-])c1c(NCCCO)cc(Sc2nc3ccccc3s2)c2nonc12 | inactive |
| Nc1c(C(=O)Nc2ccc(S(=O)(=O)N3CCCC3)cc2)sc2nc3ccc(OC(F)(F)F)cc3cc12 | inactive |
| Cc1cccc(/C=C2/S/C(=N/N=C3\CC4CCC3(C)C4(C)C)NC2=O)c1 (centres undefined) | inactive |
| N#CC1=C(N)N2C(=C(C#N)C1c1ccc(Br)cc1)Nc1ccccc12 (centres undefined) | inactive |
| C=CCc1cc(C)ccc1OCC(O)CN1CCN(c2ccccc2)CC1 (centres undefined) | inactive |
| Cc1ccccc1CS(=O)(=O)c1nnc([C@H](Cc2ccccc2)NC(=O)OC(C)(C)C)o1 | inactive |
| CCc1ccc(-c2cc(C(=O)N3N=C(C(F)F)CC3(O)C(F)F)c3ccccc3n2)cc1 (centres undefined) | inactive |
| CS(=O)(=O)c1nc(-c2ccco2)cc(C(F)(F)F)n1 | inactive |
| CC(C)(C)c1ccc(C(=O)NNC(=O)c2cccc(Br)c2)cc1 | > 10 µM (inactive) |
| CCN1/C(=C/C=C/C=C/c2sc3ccccc3[n+]2CC)Sc2ccccc21 | 2.4 µM |
| N#CC1=C(N)N2C(=C(C#N)C1c1cccc(Br)c1)Nc1ccccc12 (centres undefined) | inactive |
| C=CCn1c(SCC(=O)c2[nH]c(C)c(C(=O)OC)c2C)nc2scc(-c3ccc(OC)c(OC)c3)c2c1=O | inactive |
| CC(=O)C1=C(c2ccc(Br)cc2)C(=O)c2ccccc2C1=O | 0.99 µM |
| CC(C)C[C@H](NC(=O)c1[nH]cnc1C(=O)Nc1ccccc1)C(=O)OC(C)(C)C | inactive |
| FC(F)(F)c1cccc(Sc2nc(-c3ccccc3)nnc2C(F)(F)F)c1 | inactive |
| Cc1ccc(-c2nc(C(Cl)Cl)c3ccccc3n2)cc1 | 5.22 µM |
| CN(C(=O)CCl)C1CCCc2ccccc21 (centres undefined) | inactive |
| Fc1ccc(Nc2nc(NCc3ccco3)c3ccccc3n2)cc1 | > 10 µM (inactive) |
| CCOC(=O)/C(=C\c1ccc(OC(F)F)cc1)C1=Nn2c(nnc2-c2ccc(Cl)cc2)SC1 | 4.7 µM |
| O=C(Nc1ccc(Br)c(C(F)(F)F)c1)c1ccc(C(F)(F)F)cc1 | 5.44 µM |

| SMILES | IC50 |
| --- | --- |
| O=C1c2ccccc2C(=O)c2c1oc(C(F)(F)F)c2C(=O)c1ccccc1 | inactive |
| O=C(CNC1CCCCCC1)Nc1ccccc1N1CCCCC1 | inactive |
| Nc1nnnn1/N=C/C(Br)=C/c1ccccc1 | > 10 µM (inactive) |
| Nc1cc(Cl)ccc1Oc1ccc(Cl)cc1 | inactive |
| COc1ccc(-c2nn(-c3ccccc3)cc2/C=N/NC(=O)c2ccc(Br)o2)cc1 | inactive |
| Cc1cc(/C=N/n2cnnc2)c(C)n1-c1ccc(OCc2ccc(Cl)cc2)cc1 | 0.56 µM |
| Cc1ccc2[nH]c3c(c2c1)CN(C(=O)CN1CCN(c2cccc(C)c2C)CC1)CC3 | > 10 µM (inactive) |
| CCOc1ccc(-c2cc(CCCC(=O)NCc3ccc(C)cc3)no2)cc1 | 0.29 µM |
| COc1ccc(NC(=O)/C(Cl)=C(/Cl)S(=O)Cc2ccc(Cl)cc2)cn1 (centres undefined) | 3.27 µM |
| Cc1cccc(NS(=O)(=O)c2ccc(C3CCCCC3)cc2)c1 | 4.03 µM |
| CC(C)C[C@H](NC(=O)OC(C)(C)C)c1nnc(SCC(=O)Nc2ccc(Br)cc2)o1 | 4.92 µM |
| COc1ccc(OCc2cccc(C(=O)Nn3cc([N+](=O)[O-])cn3)c2)cc1 | 0.33 µM |
| COc1ccc(CC2(CO)CCN(CC3=Cc4cc(Cl)ccc4OC3)CC2)cc1 | 2.67 µM |
| CCc1ccc(C(=O)/C=C/c2ccc([N+](=O)[O-])o2)cc1 | > 10 µM (inactive) |
| CN1C(=O)/C(=C/c2cc(N=Nc3ccccc3)ccc2O)SC1=S | inactive |
| CCOC(=O)c1c2ccc(OCC(=O)N/N=C/c3ccc(C)cc3)cc2n2ccccc12 | inactive |
| CC1CCCC(NCC(O)COC(c2ccc(F)cc2)c2ccc(F)cc2)C1C (centres undefined) | inactive |
| Cc1ccc(-c2nc(-c3ccccn3)no2)cc1 | inactive |
| COc1cc(/C=N/O)cc(Br)c1OCc1cccc(Cl)c1 | inactive |
| CC(C)(C)C1C/C(=C/c2ccccn2)C(=O)/C(=C/c2ccccn2)C1 (centres undefined) | 0.55 µM |
| CCn1cc([N+](=O)[O-])c(C(=O)N2N=C(c3ccc(Cl)c(Cl)c3)CC2c2ccccc2O)n1 (centres undefined) | > 10 µM (inactive) |
| O=C1C(Cl)=C(N2CCCCC2)C(=O)C(Cl)=C1c1cnc(N2CCCCC2)s1 | inactive |
| COc1ccc(C(=O)NNC(=O)c2ccccn2)cc1 | inactive |
| Oc1ccc(/C=N/N2CCN(C3c4ccccc4-c4ccccc43)CC2)c(O)c1 | > 10 µM (inactive) |
